Measured values from US20230104936A1, “TRPML MODULATORS” (Casma Therapeutics, Inc., priority 2019, published 2023).

Tested on: TFEB
Experiment: TFEB nuclear translocation assay, HeLa wt cells
Type: cell-based
Conditions: 2 hrs compound treatment, Table 1 does not say HeLa wt or TRPML1 KO
In short: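 AC50 derived from the ratio of nuclear to perinuclear ring (−5 μm) anti-TFEB immunofluorescence, imaged at ×20 over four fields per well. HeLa wt or TRPML1 KO cells were exposed to compounds for 2 hrs at 37° C, then PFA-fixed and counterstained with Hoechst.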

Row | SMILES | AC50 (Homo sapiens, HeLa, 2 h) [µM] | AC50 [µM]
1 | O=S(=O)(Nc1cccc(Cl)c1N1CCOCC1)c1ccc(S(=O)(=O)C(F)F)cc1 [Compound A-274, N-[3-chloro-2-(morpholin-4-yl)phenyl]-4-difluoromethanesulfonylbenzene-1-sulfonamide] | ≥ 10 | 
2 | CN(C)S(=O)(=O)c1ccc(S(=O)(=O)Nc2ccccc2N2CCC(C3COCCO3)CC2)cc1 (stereo not drawn) [Compound A-437, N4-{2-[4-(1,4-dioxan-2-yl)piperidin-1-yl]phenyl}-N1,N1-dimethylbenzene-1,4-disulfonamide] | 2.01 to 8 | 
3 | C[S+]([O-])c1ccc(S(=O)(=O)Nc2ccccc2N2CCC(c3ccc(F)cc3F)CC2)cc1 (stereo not drawn) [Compound A-160, N-{2-[4-(2,4-difluorophenyl)piperidin-1-yl]phenyl}-4-methanesulfinylbenzene-1-sulfonamide] | 2.01 to 8 | 
4 | CN(C)S(=O)(=O)c1ccc(S(=O)(=O)Nc2ccc(F)cc2N2CCC3(CC2)COC(C)(C)C3)cc1 [Compound A-606, N4-(2-{3,3-dimethyl-2-oxa-8-azaspiro[4.5]decan-8-yl}-4-fluorophenyl)-N1,N1-dimethylbenzene-1,4-disulfonamide] | 2.01 to 8 | 
5 | O=S(=O)(Nc1ccccc1N1CCC(c2ccc(Cl)cc2F)CC1)c1cccc(Cl)c1 [Compound A-77, 3-chloro-N-{2-[4-(4-chloro-2-fluorophenyl)piperidin-1-yl]phenyl}benzene-1-sulfonamide] | ≤ 2 | 
6 | CN(C)S(=O)(=O)c1ccc(NC(c2ccccc2N2CCC(c3ccc(Cl)cc3F)CC2)C(F)(F)F)cc1 (stereo not drawn) [Compound A-241, 4-((1-(2-(4-(4-chloro-2-fluorophenyl)piperidin-1-yl)phenyl)-2,2,2-trifluoroethyl)amino)-N,N-dimethylbenzenesulfonamide] | ≥ 10 | 
7 | CN(C)S(=O)(=O)c1ccc(S(=O)(=O)Nc2ccccc2N2CCOCC2)cc1 [Compound A-770, N1,N1-dimethyl-N4-[2-(morpholin-4-yl)phenyl]benzene-1,4-disulfonamide] | ≥ 10 | 
8 | O=S(=O)(Nc1cc(Cl)ccc1N1CC23CCC2(COC3)C1)c1ccc2c(c1)CCC2 (stereo not drawn) [Compound A-344, N-(5-chloro-2-{3-oxa-7-azatricyclo[3.3.2.0^1,^5]decan-7-yl}phenyl)-2,3-dihydro-1H-indene-5-sulfonamide] | 2.01 to 8 | 
9 | COCC1(C)CCN(c2ccccc2NS(=O)(=O)c2ccc(OC(F)(F)F)cc2)CC1 [Compound A-622, N-{2-[4-(methoxymethyl)-4-methylpiperidin-1-yl]phenyl}-4-(trifluoromethoxy)benzene-1-sulfonamide] | 2.01 to 8 | 
10 | CN(C)S(=O)(=O)c1ccc(S(=O)(=O)Nc2cc(Cl)nnc2N2CCC(c3ccc(Cl)cc3F)CC2)cc1 [Compound A-129, N4-{6-chloro-3-[4-(4-chloro-2-fluorophenyl)piperidin-1-yl]pyridazin-4-yl}-N1,N1-dimethylbenzene-1,4-disulfonamide] | ≥ 10 | 
11 | CN(C)S(=O)(=O)c1ccc(S(=O)(=O)Nc2ccccc2N2CC(c3ccc(Cl)cc3)C2)cc1 [Compound A-56, N4-{2-[3-(4-chlorophenyl)azetidin-1-yl]phenyl}-N1,N1-dimethylbenzene-1,4-disulfonamide] | 2.01 to 8 | 
12 | COc1ccc(S(=O)(=O)Nc2ccccc2N2CCC(N(C)c3ccc(F)cc3F)CC2)cc1 [Compound A-189, N-(2-{4-[(2,4-difluorophenyl)(methyl)amino]piperidin-1-yl}phenyl)-4-methoxybenzene-1-sulfonamide] | ≤ 2 | 
13 | CC(c1cc(Cl)cnc1N1CCC(CN2CCC(F)(F)CC2)CC1)S(=O)(=O)c1ccc(S(=O)(=O)N(C)C)cc1 (single isomer, unassigned) [Compound A-979, 4-((1-(5-chloro-2-(4-((4,4-difluoropiperidin-1-yl)methyl)piperidin-1-yl)pyridin-3-yl)ethyl)sulfonyl)-N,N-dimethylbenzenesulfonamide] |  | 2.01 to 8
14 | CCC(C)(C)N1CCN(c2ccccc2NS(=O)(=O)c2ccc(S(=O)(=O)N(C)C)cc2)CC1 [Compound A-455, N1,N1-dimethyl-N4-{2-[4-(2-methylbutan-2-yl)piperazin-1-yl]phenyl}benzene-1,4-disulfonamide] | 2.01 to 8 | 
15 | COc1ccc(S(=O)(=O)Nc2ccccc2N2CCC(Cc3ccc(F)cc3F)C2)cc1 (stereo not drawn) [Compound A-197, N-(2-{3-[(2,4-difluorophenyl)methyl]pyrrolidin-1-yl}phenyl)-4-methoxybenzene-1-sulfonamide] | ≥ 10 | 
16 | CC(c1cccc(F)c1N1CCC(CN2C3CCC2COC3)CC1)S(=O)(=O)c1ccc(S(C)(=O)=O)cc1 (single isomer, unassigned) [Compound A-913, 8-((1-(2-fluoro-6-(1-((4-(methylsulfonyl)phenyl)sulfonyl)ethyl)phenyl)piperidin-4-yl)methyl)-3-oxa-8-azabicyclo[3.2.1]octane] |  | ≤ 2
17 | C[C@@H]1COC[C@H](C)N1CC1CN(c2c(F)cccc2NS(=O)(=O)c2ccc(S(=O)(=O)N(C)C)cc2)C1 [Compound A-900, N4-[2-(3-{[(3R,5S)-3,5-dimethylmorpholin-4-yl]methyl}azetidin-1-yl)-3-fluorophenyl]-N1,N1-dimethylbenzene-1,4-disulfonamide] | ≥ 10 | 
18 | CN1CCC2(CCN(c3ccccc3NS(=O)(=O)c3ccc(S(=O)(=O)N(C)C)cc3)CC2)C1=O [Compound A-244, N1,N1-dimethyl-N4-(2-{2-methyl-1-oxo-2,8-diazaspiro[4.5]decan-8-yl}phenyl)benzene-1,4-disulfonamide] | ≥ 10 | 
19 | O=S(=O)(Nc1cccc(N2CCC(c3ccc(Cl)cc3F)CC2)c1)c1ccc(F)cc1 [Compound A-128, N-{3-[4-(4-chloro-2-fluorophenyl)piperidin-1-yl]phenyl}-4-fluorobenzene-1-sulfonamide] | ≥ 10 | 
20 | CN(C)S(=N)(=O)c1ccc(S(=O)(=O)Nc2cccc(F)c2N2CCC(C3(N4CCOCC4)CC3)CC2)cc1 (stereo not drawn) [Compound A-858, 4-[(3-fluoro-2-{4-[1-(morpholin-4-yl)cyclopropyl]piperidin-1-yl}phenyl)sulfamoyl]-N,N-dimethylbenzene-1-sulfonoimidamide] | ≤ 2 | 
21 | COc1ccc(S(=O)(=O)Nc2ccccc2N2CCC(Oc3ccc(F)cc3F)C2)cc1 (stereo not drawn) [Compound A-202, N-{2-[3-(2,4-difluorophenoxy)pyrrolidin-1-yl]phenyl}-4-methoxybenzene-1-sulfonamide] | ≥ 10 | 
22 | COc1ccc(CN2C(=O)C(c3ccc(Cl)cc3F)Oc3ccccc32)cc1 (stereo not drawn) [Compound A-371, 2-(4-chloro-2-fluorophenyl)-4-(4-methoxybenzyl)-2H-benzo[b][1,4]oxazin-3(4H)-one] | ≤ 2 | 
23 | CN(C)C1Cc2ccccc2C12CCN(c1ccccc1NS(=O)(=O)c1ccc(S(=O)(=O)N(C)C)cc1)CC2 (stereo not drawn) [Compound A-370, N4-{2-[2-(dimethylamino)-2,3-dihydrospiro[indene-1,4′-piperidin]-1′-yl]phenyl}-N1,N1-dimethylbenzene-1,4-disulfonamide] | ≤ 2 | 
24 | CN(C)S(=O)(=O)c1ccc(S(=O)(=O)Nc2cc(Cl)ccc2N2CCN(C(=O)C(C)(C)C)CC2)cc1 [Compound A-400, N4-{5-chloro-2-[4-(2,2-dimethylpropanoyl)piperazin-1-yl]phenyl}-N1,N1-dimethylbenzene-1,4-disulfonamide] | 2.01 to 8 | 
